Data from ChEMBL document CHEMBL5661943, “ASAP - In vitro antiviral effect” (2024).
Several values for one entry are separate records, joined by “and”; a condition that tells them apart may be missing. Equal entries are not always repeated.

Experiments:
dengue virus type 2 = assay: Functional immunofluorescence assay to measure dose dependent changes in antiviral-drug inhibitory efficacy against Dengue virus type 2 Thailand/16681/84 in Vero E6/TMPRSS2 cells (cotreated with P-gp inhibitor, Elacridar). Cells are treated with antiviral candidates that are serially diluted, following infection, cells are fixed. EC50 is reported via analysis of immunofluorescence staining. The assay has been performed by Icahn School of Medicine at Mount Sinai.; assay type: organism-based, Chlorocebus sabaeus, VeroE6/TMPRSS2; settings: for EC90: P-gp concentration 2 uM, P-gp inhibitor Elacidar
Zika virus = assay: EC50 is reported via analysis of immunofluorescence staining. The assay has been performed by Icahn School of Medicine at Mount Sinai.; assay type: functional, organism-based, Chlorocebus sabaeus, VeroE6/TMPRSS2

`c1ccc(-c2csc(C3CCN(Cc4c[nH]c5ccccc45)CC3)n2)cc1` showed an EC50 (dengue virus type 2; Dengue virus, VeroE6/TMPRSS2) of over 3.33 µM, an EC90 (dengue virus type 2; Dengue virus, VeroE6/TMPRSS2, Maximum measured 77.936 %, Minimum measured 57.835 %) of over 3.33 µM and an EC90 (dengue virus type 2; Dengue virus, VeroE6/TMPRSS2, Baseline response 0 %, Hill slope -0.326, Maximum measured 104.724 %, Maximum response 100 %, Minimum measured 54.484 %, R squared 0.233) of over 1.85 µM. It also gave an EC50 (dengue virus type 2; veroe6/tmprss2) of over 1.85 µM, an EC90 (Zika virus; Baseline response 0 %, Hill slope -0.213, Maximum measured 87.861 %, Maximum response 100 %, Minimum measured 39.067 %, P-gp concentration 2 uM, R squared 0.218, P-gp inhibitor Elacidar) of over 1.85 µM and an EC50 (Zika virus; Zika virus, VeroE6/TMPRSS2) of 919 nM. For the same compound, the EC90 (Zika virus; Zika virus, VeroE6/TMPRSS2, Baseline response 0 %, Hill slope -0.414, Maximum measured 90.11 %, Maximum response 100 %, Minimum measured 29.783 %, P-gp concentration 2 uM, R squared 0.361, P-gp inhibitor Elacidar) was over 3.33 µM and the EC50 (Zika virus; veroe6/tmprss2) was 1100 nM.
With `CCOc1cccc(-c2ccc(S(=O)(=O)Nc3ccc(Cl)cc3C(=O)O)cc2)c1` the EC90 (dengue virus type 2; Dengue virus, VeroE6/TMPRSS2, Maximum measured 86.49 %, Minimum measured 33.39 %) was over 3.33 µM, the EC90 (dengue virus type 2; Dengue virus, VeroE6/TMPRSS2, Maximum measured 135.635 %, Minimum measured 86.345 %) was over 16.7 µM and the EC50 (dengue virus type 2; veroe6/tmprss2) was over 16.7 µM. For the same compound, the EC90 (Zika virus; Baseline response 0 %, Hill slope -0.264, Maximum measured 100.253 %, Maximum response 100 %, Minimum measured 37.313 %, P-gp concentration 2 uM, R squared 0.296, P-gp inhibitor Elacidar) was over 16.7 µM, the EC50 (Zika virus; Zika virus, VeroE6/TMPRSS2) was over 10000 nM and the EC90 (Zika virus; Zika virus, VeroE6/TMPRSS2, Baseline response 0 %, Hill slope -0.107, Maximum measured 149.039 %, Maximum response 100 %, Minimum measured 60.172 %, P-gp concentration 2 uM, R squared 0.014, P-gp inhibitor Elacidar) was over 10 µM. It also gave an EC50 (Zika virus; veroe6/tmprss2) of 9760 nM.
`NCc1cccc(NC(=O)c2cc(Cl)cc(N3CCCC3=O)c2)c1` showed an EC90 (dengue virus type 2; Dengue virus, VeroE6/TMPRSS2, Maximum measured 120.219 %, Minimum measured 55.49 %) of over 10 µM, an EC90 (dengue virus type 2; Dengue virus, VeroE6/TMPRSS2, Baseline response 0 %, Hill slope 0.068, Maximum measured 98.172 %, Maximum response 100 %, Minimum measured 58.193 %, R squared 0.052) of over 50 µM and an EC50 (dengue virus type 2; veroe6/tmprss2) of over 50 µM. The EC90 (Zika virus; Baseline response 0 %, Hill slope 0.118, Maximum measured 129.177 %, Maximum response 100 %, Minimum measured 53.613 %, P-gp concentration 2 uM, R squared 0.041, P-gp inhibitor Elacidar) was over 10 µM, the EC90 (Zika virus; Baseline response 0 %, Hill slope -0.203, Maximum measured 140.608 %, Maximum response 100 %, Minimum measured 78.837 %, P-gp concentration 2 uM, R squared 0.028, P-gp inhibitor Elacidar) was over 50 µM and the EC50 (Zika virus; veroe6/tmprss2) was over 50000 nM.
`NCc1cccc(NC(=O)c2cc(Cl)cc(NC(=O)OCc3ccccc3)c2)c1` showed an EC90 (dengue virus type 2; Baseline response 0 %, Hill slope 0.299, Maximum measured 124.416 %, Maximum response 100 %, Minimum measured 54.583 %, R squared 0.188) of over 10 µM, an EC90 (dengue virus type 2; Baseline response 0 %, Hill slope -0.071, Maximum measured 76.87 %, Maximum response 100 %, Minimum measured 49.245 %, R squared 0.036) of over 1.85 µM and an EC90 (dengue virus type 2; Baseline response 0 %, Hill slope -0.258, Maximum measured 121.337 %, Maximum response 100 %, Minimum measured 68.392 %, R squared 0.156) of over 5.56 µM. For the same compound, the EC50 (dengue virus type 2; veroe6/tmprss2) was over 10 µM, the EC90 (Zika virus; Baseline response 0 %, Hill slope -0.215, Maximum measured 128.419 %, Maximum response 100 %, Minimum measured 50.213 %, P-gp concentration 2 uM, R squared 0.105, P-gp inhibitor Elacidar) was over 3.33 µM and the EC90 (Zika virus; Baseline response 0 %, Hill slope -0.764, Maximum measured 71.895 %, Maximum response 50 %, Minimum measured 1.714 %, P-gp concentration 2 uM, R squared 0.465, P-gp inhibitor Elacidar) was over 16.7 µM. For the same compound, the EC90 (Zika virus; Baseline response 0 %, Hill slope -1.05, Maximum measured 125.373 %, Maximum response 100 %, Minimum measured 37.992 %, P-gp concentration 2 uM, R squared 0.488, P-gp inhibitor Elacidar) was over 5.56 µM and the EC50 (Zika virus; veroe6/tmprss2) was > 3330 nM and 2020 nM and 1200 nM.
With `NCc1cccc(NC(=O)[C@H]2[C@H]3CCCCC[C@H]3[C@H]2NC(=O)OCc2ccccc2)c1` the EC50 (dengue virus type 2; Dengue virus, VeroE6/TMPRSS2) was over 5.56 µM, the EC90 (dengue virus type 2; Dengue virus, VeroE6/TMPRSS2, Baseline response 0 %, Hill slope -0.21, Maximum measured 66.083 %, Maximum response 100 %, Minimum measured 25.848 %, R squared 0.326) was over 5.56 µM and the EC50 (Zika virus; Zika virus, VeroE6/TMPRSS2) was 1430 nM. For the same compound, the EC90 (Zika virus; Zika virus, VeroE6/TMPRSS2) was 9.76 µM.
`NCc1cccc(NC(=O)[C@@H](NC(=O)OCc2ccccc2)c2ccc(Br)c(Cl)c2)c1` was tested, and the EC50 (dengue virus type 2; Dengue virus, VeroE6/TMPRSS2) was over 5.56 µM, the EC90 (dengue virus type 2; Dengue virus, VeroE6/TMPRSS2, Maximum measured 72.758 %, Minimum measured 24.513 %) was over 5.56 µM and the EC50 (Zika virus; Zika virus, VeroE6/TMPRSS2) was 557 nM. The EC90 (Zika virus; Zika virus, VeroE6/TMPRSS2, Baseline response 0 %, Hill slope -0.711, Maximum measured 91.358 %, Maximum response 100 %, Minimum measured 2.864 %, P-gp concentration 2 uM, R squared 0.54, P-gp inhibitor Elacidar) was over 5.56 µM.
With `NCc1cccc(NC(=O)c2cc(Cl)cc3c2CCC3)c1` the EC50 (dengue virus type 2; Dengue virus, VeroE6/TMPRSS2) was over 10 µM, the EC90 (dengue virus type 2; Dengue virus, VeroE6/TMPRSS2, Maximum measured 223.993 %, Minimum measured 74.273 %) was over 16.7 µM and the EC90 (dengue virus type 2; Dengue virus, VeroE6/TMPRSS2, Baseline response 0 %, Hill slope 0.162, Maximum measured 165.889 %, Maximum response 100 %, Minimum measured 52.995 %, R squared 0.068) was over 10 µM. For the same compound, the EC50 (dengue virus type 2; veroe6/tmprss2) was over 16.7 µM, the EC50 (Zika virus; Zika virus, VeroE6/TMPRSS2) was over 16700 nM and the EC90 (Zika virus; Zika virus, VeroE6/TMPRSS2, Maximum measured 83.197 %, Minimum measured 51.618 %, P-gp concentration 2 uM, P-gp inhibitor Elacidar) was over 16.7 µM.
